Data from the supplement of paper PMC10307832.

Assays:
Assay in all cases: relative viability (nuclei count vs DMSO), 5 days (fraction); higher = more cells survive
[1] = compound: CCn1c(-c2nonc2N)nc2cnc(Oc3cccc(NC(=O)c4ccc(OCCN5CCOCC5)cc4)c3)cc21 + Nc1nc2[nH]cc(CCc3ccc(C(=O)N[C@@H](CCC(=O)O)C(=O)O)cc3)c2c(=O)[nH]1 [Pemetrexed] (partner 0.2 µM)
How it was run: (§1)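 Relative viability was taken as the ratio of nuclei in treated wells to nuclei in vehicle wells. Lung cancer cell lines in 1536-well plates received compounds by pin tool one day after seeding, either one drug alone or a fixed anchor-drug dose plus five library-drug doses (not always all listed) in √10 steps. Nuclei were counted on 4× images after 5 days of treatment, and values are medians of duplicate plates.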

[2] = compound: CCC1=CN=CN=C1N2CCN(CC2)CC3=NC4=C(N3)C=C(C=C4)C(F)(F)F + O=C(c1cc(Cc2n[nH]c(=O)c3ccccc23)ccc1F)N1CCN(C(=O)C2CC2)CC1 [Olaparib] (partner 8 µM)
How it was run: as §1

[3] = compound: CCn1c(-c2nonc2N)nc2cnc(Oc3cccc(NC(=O)c4ccc(OCCN5CCOCC5)cc4)c3)cc21 + O=C(c1cc(Cc2n[nH]c(=O)c3ccccc23)ccc1F)N1CCN(C(=O)C2CC2)CC1 [Olaparib] (partner 8 µM)
How it was run: as §1

[4] = compound: CCn1c(-c2nonc2N)nc2cnc(Oc3cccc(NC(=O)c4ccc(OCCN5CCOCC5)cc4)c3)cc21 + N=C(N)NC(=N)NCCc1ccccc1 [Phenformin] (partner 250 µM)
How it was run: as §1

Cell Line	relative viability ([1]; first compound 0.04 µM)	relative viability ([1]; first compound 0.1265 µM)	relative viability ([1]; first compound 0.4 µM)	relative viability ([1]; first compound 1.265 µM)	relative viability ([1]; first compound 4 µM)	relative viability ([2]; first compound 0.04 µM)	relative viability ([2]; first compound 0.1265 µM)	relative viability ([2]; first compound 0.4 µM)	relative viability ([2]; first compound 4 µM)	relative viability ([3]; first compound 0.04 µM)	relative viability ([3]; first compound 0.1265 µM)	relative viability ([3]; first compound 0.4 µM)	relative viability ([3]; first compound 1.265 µM)	relative viability ([3]; first compound 4 µM)	relative viability ([4]; first compound 0.04 µM)	relative viability ([4]; first compound 0.1265 µM)	relative viability ([4]; first compound 0.4 µM)	relative viability ([4]; first compound 1.265 µM)	relative viability ([4]; first compound 4 µM)	relative viability ([2]; first compound 1.265 µM)
SW 900	0.526	0.49	0.439	0.442	0.444	0.928	0.764	0.863	0.82	0.899	0.924	1.13	0.826	0.694	0.71	0.548	0.506	0.39	0.548	
NCI-H1944	0.654	0.632	0.577	0.367	0.301	0.622	0.395	0.378	0.361	0.42	0.419	0.358	0.386	0.327	0.192	0.161	0.109	0.111	0.102	0.344
NCI-H838	0.252	0.218	0.187	0.179	0.156	0.816	0.752	0.737	0.74	0.405	0.347	0.383	0.221	0.222	0.501	0.285	0.201	0.227	0.222	0.712
NCI-H1650	0.343	0.326	0.389	0.334	0.343	0.682	0.797	0.708	0.907	0.74	0.849	0.744	0.696	0.715	0.47	0.382	0.229	0.397	0.369	0.642
HCC-827	0.27	0.261	0.266	0.267	0.285	0.698	0.706	0.721	0.595	0.686	0.693	0.698	0.501	0.509	0.489	0.484	0.439	0.414	0.399	0.567
HCC-366	0.166	0.173	0.131	0.0447	0.0523	0.38	0.355	0.29	0.335	0.334	0.303	0.416	0.0675	0.0475	0.694	0.665	0.412	0.0542	0.0311	0.349
HARA	0.211	0.233	0.205	0.181	0.212	0.743	0.923	0.763	0.84	0.607	0.965	0.654	0.294	0.139	0.585	0.369	0.231	0.0981	0.074	0.737
NCI-H441	0.261	0.26	0.251	0.243	0.252	0.459	0.543	0.543	0.529	0.74	0.589	0.454	0.439	0.394	0.89	0.96		0.654	0.623	0.458
LXF-289	0.972	0.974	0.918	0.856	0.795	1.08	1.01	1.05	0.933	1.07	1.22	1.01	1.12	0.984	0.554	0.526	0.361	0.334	0.341	1.02
RERF-LC-KJ	0.471	0.439	0.418	0.384	0.415	0.975	0.95	0.954	0.885	0.898	0.84	0.759	0.447	0.388	0.487	0.42	0.379	0.289	0.324	0.849
CAL-12T	1.81	1.38	1.39	1.04	0.996	0.75	0.726	0.721	0.667	0.825	0.795	0.73	0.635	0.539	0.686	0.596	0.48	0.418	0.388	0.661
COR-L 105	1.13	0.965	1.09	0.615	0.507	0.654	0.711	0.623	0.762	0.631	0.617	0.699	0.554	0.457	0.523	0.416	0.389	0.31	0.271	0.648
NCI-H2405	1.01	0.395	0.315	0.247	0.284	0.898	0.874	0.821	0.919	0.883	0.57	0.341	0.258	0.287	0.379	0.236	0.0695	0.124	0.13	
NCI-H2228	0.328	0.289	0.302	0.285	0.333		0.608	0.551	0.488	1.13	0.742	0.776	0.671	0.544	0.41	0.31	0.329	0.318	0.331	0.658
PC-14	0.136	0.149	0.131	0.138	0.177	0.231	0.275	0.29	0.261	0.27	0.206	0.287	0.309	0.326	0.962	0.556	0.549	0.258	0.457	0.25
NCI-H2087	0.777	0.653	0.642	0.603	0.596	0.791	0.542	0.623	0.423	0.802	0.539	0.559	0.483	0.586	0.598	0.458	0.474	0.432	0.372	0.522
